Assay [1] deals with outer lamina II (IIo) spinal cord interneurons. The assay can be described thus: Whole-cell patch-clamp recording in mouse spinal cord slices. The format is cell-based. Conditions: slice incubation. As to the method:
Whole-cell patch-clamp recording in mouse spinal cord slices: 4 to 6-week-old mice were anesthetized with urethane (1.5-2.0 g/kg, i.p.). […] After extraction of the spinal cord under anesthesia, animals were rapidly euthanized via decapitation. Transverse spinal slices (300 to 400 μm) were prepared using a vibrating microtome (VT1200S Leica). The slices were incubated at 32° C. for at least 30 min in ACSF equilibrated with 95% O2 and 5% CO2. The slices were placed in a recording chamber and completely submerged and perfused at a flow rate of 2 to 4 ml/min with ACSF saturated with 95% O2 and 5% CO2 at room temperature. Lamina II neurons in lumbar segments were identified as a translucent band under a microscope (BX51WIF; Olympus) with light transmitted from below. Whole-cell voltage-clamp recordings were made from outer lamina II neurons using patch pipettes. The patch pipette solution used to record sEPSCs contained 135 mM K-gluconate, 5 mM KCl, 0.5 mM CaCl2, 2 mM MgCl2, 5 mM EGTA, 5 mM HEPES, and 5 mM Mg-ATP (pH 7.3 adjusted with KOH). […] Signals were acquired using an […] amplifier. The data were stored and analyzed with a PC using pCLAMP 10.3 software.
On the technique in general: In patch-clamp work, channel activity is measured electrically.

A further assay deals with LLC lung tumor nodules. As to the kind of experiment: Lung metastases after intrafemoral LLC inoculation. The format is in vivo, mouse. Conditions: d17, 20 mg/kg i.p., vs vehicle or ZA. An excerpt: Visual and immunohistochemical analysis of lung metastases. Mice were deeply anesthetized with isoflurane and perfused intracardially with PBS, followed by 4% PFA. After the perfusion, lungs were removed from mice and post-fixed in the same fixative overnight. The samples were then dehydrated with a 30% sucrose solution, embedded in O.C.T. (Tissue Tek), and cryosectioned to produce 8 μm thick sections. For Hematoxylin and Eosin (H & E) staining, lung sections were rehydrated and stained with 0.1% Hematoxylin and 0.5% Eosin in sequence. After dehydration and clearance with HistoClear (Electron

In assay [2] the test system is naïve mice or mice following spared nerve injury (SNI). The assay can be described thus: Repeated i.t. STING agonist administration, nerve injury (SNI) model. In kind it is in vivo, mouse. On the procedure: Mouse pain models: The chemotherapy-induced peripheral neuropathy (CIPN) model of chronic neuropathic pain was established as we have done previously, using 8-10-week-old CD-1 (strain #022, Charles River) mice injected with paclitaxel (2 mg/kg i.p.) every other day, with 4 injections total. The chronic constriction injury (CCI) model of neuropathic pain was also produced using 8-10-week-old CD-1 under isoflurane anesthesia. Briefly, the right sciatic nerve was exposed above the hip and two ligatures (7-0 Prolene) were placed around the nerve 1 mm apart located proximal to the trifurcation. Ligatures were loosely tied until a subtle flick of the ipsilateral hind limb was observed. CD-1 mice were also used to establish the SNI model, which was generated by tightly ligating the tibial and common peroneal nerves followed by transection and removal of a ˜3 mm portion of the nerve. The sural nerve was left intact and contact or stretching of this nerve was avoided . To establish the syngeneic bone cancer pain (BCP) model, 8-10-week-old C57BL/6J mice (strain #000664, Jackson Labs) were utilized, as the Lewis lung carcinoma cell line LLC1 (LL/2; ATCC CRL-1642) was originally generated in C57BL/6J mice. Mice were anesthetized with isoflurane and the left leg was shaved, disinfected with 10% povidone-iodine, and a 1 cm superficial incision was made to expose the patellar ligament. A 25-gauge needle was inserted at the intercondylar notch of the left femur into the femoral cavity, followed by needle replacement with a 10 μl Hamilton syringe microinjector containing a 2 μl suspension of LLC cells (2×10^5 cells) followed by a 2 μl gelatin sponge solution to enable closure of the injection site. All mice were housed and monitored in accordance with AAALAC standards and Duke IACUC guidelines that pertained to each model.
Reflexive-based sensory testing in mice: All behavioral testing in mice was performed in a specialized humidity- and light-controlled mouse behavior facility maintained at 21-24° C., with testing conducted between the hours of 8:00-16:00. Mice were habituated to the testing environment for at least 2 days prior to baseline testing. All tests were performed by an experimenter who was blinded to experimental conditions, including genotypes and drug treatment. For multi-day experiments using STING agonists, mice were tested in the same room at approximately the same time each day. To measure mechanical sensitivity, mice were confined to individual chambers with non-transparent borders on an elevated mesh rack, preventing mice from visualizing or interacting with one another during the testing period. […] We determined the 50% paw withdrawal threshold using the up-down method. […]

The subject of assay [3] is osteoclasts and osteoblasts in tumor-bearing distal femora. As to the kind of experiment: TRAP and ALP staining on mouse femurs. The format is in vivo. As to the method:
Bone histology, TRAP, and ALP staining on mouse femurs. Mice were deeply anesthetized and perfused intracardially with 4% paraformaldehyde (PFA) in 0.1M phosphate buffered saline. The femora were removed and then post-fixed for 48 h in the same fixative at 4° C. After demineralization in EDTA (10%) for 10 days, femur samples were dehydrated in an ascending gradient of ethanol (30-100%) followed by paraffin embedding. Serial sections for trabecular bone were obtained from the distal femur at a thickness of 5 μm followed by tartrate-resistant acid phosphatase (TRAP) staining or alkaline phosphatase (ALP) staining using TRAP kits (Fast Red TR/Naphthol AS-MX, Sigma, St. Louis, Mo.) and NBT/BCIP (Thermo Scientific), respectively. Bone static histomorphometric analyses for […] and osteoblast number (osteoblast number per trabecular bone surface, Ob.N/BS) were conducted using Image J (NIH) based on images taken by a Leica Q500MC microscope. Osteoclasts, osteoblasts and trabecular bone at the metaphysis of the femur (1500 μm proximal to the distal growth plate) were quantified, since bone destruction in this model mainly occurs in this area. Three sections per animal were randomly chosen and used for quantification.

In the case of `Nc1ncnc2c1ncn2[C@@H]1O[C@@H]2COP(=O)([S-])O[C@@H]3[C@H](O)[C@@H](COP([O-])(=S)O[C@H]2[C@H]1O)O[C@H]3n1cnc2c(N)ncnc21.[Na+].[Na+]` (stereo partly drawn) [ADU-S100, (2′-5′)-[P(R)]-5′-O-[(R)-hydroxymercaptophosphinyl]-P-thioadenylyl-adenosine cyclic dinucleotide], the “frequency and amplitude of spontaneous EPSCs (sEPSCs)” value in assay [1] is “decreased both the frequency and amplitude of spontaneous EPSCs”. The lung tumor nodules result with LLC lung tumor nodules is recorded as “fewer lung tumor nodules”.
Regarding `Cc1ccc2c(=O)c3cccc(CC(=O)O)c3oc2c1C` [DMXAA, 2-(5,6-dimethyl-9-oxo-9H-xanthen-4-yl)acetic acid], the “tolerance on repeated administration” value in assay [2] (repeated i.t. 35 nmol, naïve mice or SNI mice) is given as “did not show signs of tolerance”. Besides, in assay [2] (repeated i.t. administration, SNI), the SNI-induced astrogliosis entry is “attenuated SNI-induced astrogliosis”. In addition, in assay [2] (repeated i.t., starting at D12), the “cold allodynia at later timepoints” value is “significantly reduced” and the “mechanical allodynia at later timepoints” value was “significantly reduced”. The osteoblasts result in assay [3] (d11) is listed as “no changes were observed in bone-forming osteoblasts”. Also, the osteoclast numbers entry in assay [3] (d11, 2×20 mg/kg i.p.) is on record as “far significantly fewer osteoclasts”.
